We go through ten molecules from publication PMC6332165, “Study of the Relationships between the Structure, Lipophilicity and Biological Activity of Some Thiazolyl-carbonyl-thiosemicarbazides and Thiazolyl-azoles” (Molecules, 2015).

Data set [1] is described as follows: Lipophilicity by reversed-phase thin-layer chromatography (RP-TLC), isopropanol-water mobile phase. The data set is classed as physicochemical. To be noted: RP-18F254s TLC, iso-propanol-water 45-65% (v/v); for RM0 (lipophilicity estimation parameter, intercept of RM = RM0 + bC): extrapolated to pure water. How it is done: Some of the parameters resulting from a RP-TLC may be associated to the lipophilic character of the analytes. The retention parameters (RM) are calculated by means of well-known Batte-Smith and Westall Equation (1): RM = log (1/RF − 1) (1)
Generally, the RM values determined by RP-TLC are linearly dependent on the concentration of the organic modifier (C) in the mobile phase Equation (2): RM = RM0 + bC (2) where b and RM0 are, respectively, the slope and the intercept of Equation (2). […] Additionally, it has been stated that not only the RM0, but also the slope, b, as a characteristic of the specific hydrophobic surface area of the compounds, can be used as an estimation of lipophilicity. The advantages of TLC methods consist in the small quantity of compounds needed for the determination, and the rapidity and simplicity of the method. Also, they are inexpensive, rapid and easy to perform.
Chromatography was performed on 20 × 20 cm RP-18F254s TLC precoated silica plates (Merck; Darmstadt, Germany). Solutions (1 mg/mL) of the tested compounds were prepared in iso-propanol, and 3 μL aliquots were spotted in duplicate on the plates by hand, 10 mm from the bottom edge and 20 mm apart. The mobile phases were composed of the iso-propanol-water binary mixtures, with a varying content of organic modifier between 45% and 65% (v/v) in 5% increments, as the study compounds differed considerably in their retention. Chromatography was performed in a normal developing chamber at room temperature, the developing distance being 10 cm. The chromatography chamber was saturated with the mobile phase for 30 min before use. After the development (30–60 min), the plates were air dried at room temperature and examined under a UV lamp (λ = 254 nm), and the RF (retardation factor) values were measured manually by a digital caliper. The experiments were performed in triplicate.

In data set [2] the test system is turpentine oil-induced inflammation. Further details: method as in PMID 23504664; Leukocytes (L, leukocytes count):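 lower leukocyte count means stronger anti-inflammatory effect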. The following applies: cited from earlier work; for Leukocytes (L, leukocytes count) / PMN (polymorphonuclear leukocytes, differential leucocyte count): mean ± SD.
The test system of the next data set is phagocytes. Further details: method as in PMID 23504664. The following applies: turpentine oil-induced inflammation, mean ± SD; cited from earlier work.
In data set [3] the test system is nitric oxide (NO) synthesis. Further details: method as in PMID 23504664; unit not given here. The following applies: turpentine oil-induced inflammation, mean ± SD; cited from earlier work.
The next data set concerns oxidative stress. Further details: method as in PMID 23504664. To be noted: turpentine oil-induced inflammation, mean ± SD; cited from earlier work.

SMILES strings stand for the structures.

On to `Cc1ccc(-c2nc(C)c(-c3nnc(S)n3C)s2)cc1` [Th-13], for which, in data set [1], the “b (slope of RM = RM0 + bC, specific hydrophobic surface area)” value is reported as −2.672 and the “RM0 (lipophilicity estimation parameter, intercept of RM = RM0 + bC)” value is recorded as 1.565. In addition, in data set [2], the “Leukocytes (L, leukocytes count)” value is given as 10,172 ± 331 and the “PMN (polymorphonuclear leukocytes, differential leucocyte count)” value is recorded as 80.8 ± 3.0%. Further, in the data set with phagocytes, the “PA (phagocytic activity)” value is given as 27.5 ± 0.9 and the “PI (phagocytosis index)” value is recorded as 25.5 ± 2.8%. Further, the “NO (nitric oxide synthesis)” value in data set [3] is 75.451 ± 6.9. For the same molecule, in the data set on oxidative stress, the “OSI (oxidative stress index)” value is recorded as 4.63 ± 3.6, the “TAR (total antioxidant response)” value is on record as 1.1 ± 0.012 and the “TOS (total oxidative status)” value is listed as 50.886 ± 5.6.
As for `Cc1nc(-c2ccc(Br)cc2)sc1-c1nnc(S)n1C` [Th-14], in data set [1], the “b (slope of RM = RM0 + bC, specific hydrophobic surface area)” value is −2.659 and the “RM0 (lipophilicity estimation parameter, intercept of RM = RM0 + bC)” value is on record as 1.630. Besides, in data set [2], the “Leukocytes (L, leukocytes count)” value is listed as 10,172 ± 520 and the “PMN (polymorphonuclear leukocytes, differential leucocyte count)” value is reported as 75.4 ± 4.5%. In the data set on phagocytes, the “PA (phagocytic activity)” value is reported as 23.5 ± 0.9 and the “PI (phagocytosis index)” value is listed as 28 ± 2.1%. Further, the “NO (nitric oxide synthesis)” value in data set [3] is reported as 86.04 ± 2.9. Also, in the data set with oxidative stress, the “OSI (oxidative stress index)” value is on record as 6.1 ± 4.7, the “TAR (total antioxidant response)” value was 1.097 ± 0.006 and the “TOS (total oxidative status)” value is recorded as 66.876 ± 9.7.
Take `C=CCn1c(S)nnc1-c1sc(-c2ccccc2)nc1C` [Th-15]: in data set [1], the “b (slope of RM = RM0 + bC, specific hydrophobic surface area)” value was −2.905 and the “RM0 (lipophilicity estimation parameter, intercept of RM = RM0 + bC)” value was 1.664. Further, in data set [2], the “Leukocytes (L, leukocytes count)” value is reported as 9982.5 ± 81 and the “PMN (polymorphonuclear leukocytes, differential leucocyte count)” value was 77.4 ± 5.1%. In the data set with phagocytes, the “PA (phagocytic activity)” value is given as 29 ± 3.2 and the “PI (phagocytosis index)” value is recorded as 24 ± 4.3%. The “NO (nitric oxide synthesis)” value in data set [3] is 71.630 ± 5.9. In the data set on oxidative stress, the “OSI (oxidative stress index)” value was 6.32 ± 4.4, the “TAR (total antioxidant response)” value was 1.094 ± 0.006 and the “TOS (total oxidative status)” value is listed as 69.171 ± 4.4.
In the case of `C=CCn1c(S)nnc1-c1sc(-c2ccc(C)cc2)nc1C` [Th-16], in data set [1], the “b (slope of RM = RM0 + bC, specific hydrophobic surface area)” value is listed as −2.962 and the “RM0 (lipophilicity estimation parameter, intercept of RM = RM0 + bC)” value is 1.783. In data set [2], the “Leukocytes (L, leukocytes count)” value was 9225 ± 333 and the “PMN (polymorphonuclear leukocytes, differential leucocyte count)” value is recorded as 77.4 ± 1.9%. For the same molecule, in the data set with phagocytes, the “PA (phagocytic activity)” value is reported as 27 ± 1.1 and the “PI (phagocytosis index)” value is on record as 21.2 ± 1.0%. In data set [3], the “NO (nitric oxide synthesis)” value is on record as 63.091 ± 5.1. In the data set on oxidative stress, the “OSI (oxidative stress index)” value is listed as 6.04 ± 4.1, the “TAR (total antioxidant response)” value is 1.103 ± 0.009 and the “TOS (total oxidative status)” value was 66.681 ± 9.1.
On to `C=CCn1c(S)nnc1-c1sc(-c2ccc(Br)cc2)nc1C` [Th-17], for which, in data set [1], the “b (slope of RM = RM0 + bC, specific hydrophobic surface area)” value is reported as −4.737 and the “RM0 (lipophilicity estimation parameter, intercept of RM = RM0 + bC)” value was 2.808. Also, in data set [2], the “Leukocytes (L, leukocytes count)” value is recorded as 10,147.5 ± 528 and the “PMN (polymorphonuclear leukocytes, differential leucocyte count)” value is 75.4 ± 5.2%. Further, in the data set on phagocytes, the “PA (phagocytic activity)” value is 19.5 ± 0.9 and the “PI (phagocytosis index)” value was 15 ± 3.5%. The “NO (nitric oxide synthesis)” value in data set [3] is 60.479 ± 11.8. In the data set with oxidative stress, the “OSI (oxidative stress index)” value is reported as 6.38 ± 5.2, the “TAR (total antioxidant response)” value is reported as 1.093 ± 0.003 and the “TOS (total oxidative status)” value was 69.962 ± 5.2.
On to `Cc1nc(-c2ccccc2)sc1-c1nnc(S)o1` [Th-18], for which, in data set [1], the “b (slope of RM = RM0 + bC, specific hydrophobic surface area)” value is reported as −1.840 and the “RM0 (lipophilicity estimation parameter, intercept of RM = RM0 + bC)” value is reported as 0.540. In data set [2], the “Leukocytes (L, leukocytes count)” value is recorded as 4575 ± 805 and the “PMN (polymorphonuclear leukocytes, differential leucocyte count)” value is reported as 63.7 ± 2.4%. Further, in the data set with phagocytes, the “PA (phagocytic activity)” value is 56 ± 8.6 and the “PI (phagocytosis index)” value is reported as 17 ± 1.9%. For the same molecule, the “NO (nitric oxide synthesis)” value in data set [3] was 43.23 ± 3.9. In the data set on oxidative stress, the “OSI (oxidative stress index)” value was 6.98 ± 4.1, the “TAR (total antioxidant response)” value is 1.118 ± 0.006 and the “TOS (total oxidative status)” value is listed as 78.089 ± 14.1.
As to `Cc1ccc(-c2nc(C)c(-c3nnc(S)o3)s2)cc1` [Th-19], in data set [1], the “b (slope of RM = RM0 + bC, specific hydrophobic surface area)” value is reported as −1.134 and the “RM0 (lipophilicity estimation parameter, intercept of RM = RM0 + bC)” value was 0.286. In data set [2], the “Leukocytes (L, leukocytes count)” value is 7443.75 ± 1172 and the “PMN (polymorphonuclear leukocytes, differential leucocyte count)” value is 72.8 ± 5.0%. Besides, in the data set on phagocytes, the “PA (phagocytic activity)” value is listed as 13.5 ± 2.78 and the “PI (phagocytosis index)” value is on record as 20 ± 1.5%. Besides, in data set [3], the “NO (nitric oxide synthesis)” value is given as 45.198 ± 2.2. Besides, in the data set on oxidative stress, the “OSI (oxidative stress index)” value is listed as 7.13 ± 5.9, the “TAR (total antioxidant response)” value is reported as 1.119 ± 0.009 and the “TOS (total oxidative status)” value is 79.849 ± 12.
For `Cc1nc(-c2ccc(Br)cc2)sc1-c1nnc(S)o1` [Th-20], in data set [1], the “b (slope of RM = RM0 + bC, specific hydrophobic surface area)” value is −1.283 and the “RM0 (lipophilicity estimation parameter, intercept of RM = RM0 + bC)” value is listed as 0.393. For the same molecule, in data set [2], the “Leukocytes (L, leukocytes count)” value is recorded as 4837.5 ± 1305 and the “PMN (polymorphonuclear leukocytes, differential leucocyte count)” value is 59.2 ± 5.6%. For the same molecule, in the data set on phagocytes, the “PA (phagocytic activity)” value is listed as 20 ± 1.5 and the “PI (phagocytosis index)” value is 16 ± 3.0%. Further, the “NO (nitric oxide synthesis)” value in data set [3] is on record as 43.288 ± 5.0. In addition, in the data set with oxidative stress, the “OSI (oxidative stress index)” value is recorded as 7.32 ± 3.2, the “TAR (total antioxidant response)” value is 1.106 ± 0.003 and the “TOS (total oxidative status)” value is 81.022 ± 13.2.
Turning to `Cc1nc(-c2ccccc2)sc1-c1nnc(S)s1` [Th-21], in data set [1], the “b (slope of RM = RM0 + bC, specific hydrophobic surface area)” value was −1.286 and the “RM0 (lipophilicity estimation parameter, intercept of RM = RM0 + bC)” value was 0.620. For the same molecule, in data set [2], the “Leukocytes (L, leukocytes count)” value was 3000 ± 241 and the “PMN (polymorphonuclear leukocytes, differential leucocyte count)” value is 52.6 ± 2.1%. Also, the “anti-inflammatory and antioxidant effects (in words)” value in data set [2] (overall ranking within the series) was “best anti-inflammatory and antioxidant effects”. In the data set with phagocytes, the “PA (phagocytic activity)” value is reported as 23 ± 1.9 and the “PI (phagocytosis index)” value is reported as 14.5 ± 4.6%. In data set [3], the “NO (nitric oxide synthesis)” value was 43.737 ± 6.2. Moreover, in the data set on oxidative stress, the “OSI (oxidative stress index)” value is 6.03 ± 4.5, the “TAR (total antioxidant response)” value was 1.114 ± 0.007 and the “TOS (total oxidative status)” value is 67.137 ± 10.6.
As for `Cc1ccc(-c2nc(C)c(-c3nnc(S)s3)s2)cc1` [Th-22], in data set [1], the “b (slope of RM = RM0 + bC, specific hydrophobic surface area)” value is −1.227 and the “RM0 (lipophilicity estimation parameter, intercept of RM = RM0 + bC)” value is recorded as 0.701. Also, in data set [2], the “Leukocytes (L, leukocytes count)” value was 5812.5 ± 399 and the “PMN (polymorphonuclear leukocytes, differential leucocyte count)” value is 66.4 ± 0.8%. Further, in the data set with phagocytes, the “PA (phagocytic activity)” value is listed as 23.5 ± 0.9 and the “PI (phagocytosis index)” value is listed as 35 ± 8.2%. The “NO (nitric oxide synthesis)” value in data set [3] is 52.08 ± 8.1. Also, in the data set with oxidative stress, the “OSI (oxidative stress index)” value is 5.13 ± 4.9, the “TAR (total antioxidant response)” value is recorded as 1.105 ± 0.001 and the “TOS (total oxidative status)” value was 56.694 ± 7.9.
